System: T. cruzi intracellular amastigotes in H9c2 cells
Assay: Rate-of-Kill (RoK) high-content imaging assay, amastigotes per cell (AM/CELL) and curve descriptors
Assay type: cell-based, Trypanosoma cruzi
Design: key to ME_24h / ME_48h / ME_72h: % reduction in parasite burden (cidal response); t50pct_MCC50 / t50pct_Cmax: unit not given here
Details: for ME_24h: 24h; for ME_48h: 48h; for ME_72h: 72h; for tlag_Cmax / t50pct_Cmax / t50%_Cmax: at Cmax; for ME_24h (%): maximum effect at 24 h; for ME_24h (%) / ME_48h (%) / ME_72h (%): RoK assay; for ME_48h (%): maximum effect at 48 h; for ME_72h (%): maximum effect at 72 h; for ME 24h (maximum effect at 24 hours, intracellular amastigotes): maximum percentage of parasite burden reduction reached by any concentration
In short: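 H9c2 cardiomyocytes infected with T. cruzi trypomastigotes (MOI 8, 18 h), then compounds tested at 5 μM single shot or 11-point 1/3 dilution from 50 μM. DRAQ5-stained nuclei imaged over a time course. Amastigotes per cell normalised to infected cells at 4 h (0%) and non-infected cells (100%).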

| SMILES | ME_24h (figure 5) | ME_48h (figure 5) | ME_72h (figure 5) | MCC50 (RoK curve descriptor) [µM] | MCCE (RoK curve descriptor) [µM] | AM/CELL NORM (Time 4, sheet figure 4 A) | AM/CELL NORM (Time 24, sheet figure 4 A) | AM/CELL NORM (Time 48, sheet figure 4 A) | AM/CELL NORM (Time 72, sheet figure 4 A) | tlag_Cmax [h] | t50pct_Cmax (figure 5) | tlag_Cmax (figure 5) | t50%_MCC50 (at MCC50) [h] | t50pct_MCC50 (at MCC50, figure 5) | tlag_MCC50 (at MCC50, figure 5) | MCCE (figure 5) | ME_24h (%) | ME_48h (%) | ME_72h (%) | ME 24h (maximum effect at 24 hours, intracellular amastigotes) [%] | also measured |
| --- | --- | --- | --- | --- | --- | --- | --- | --- | --- | --- | --- | --- | --- | --- | --- | --- | --- | --- | --- | --- | --- |
| CC(=O)Nc1nc(-c2cc(C)ccc2C)c(C)s1 [TCMDC-143207] | 9.377 | 15.7339 | 56.2605 | 5.6 | 0.2 | -2.089 | 9.377 | 6.875 | 36.4934 | 4.0 | 72 | 4 | 72.0 | 72 | 4 | 0.2058 | 9.4 | 15.7 | 56.3 | 9.377 | tlag_MCC50 (at MCC50): 4.0 h; MCC50 (figure 5, in µM): 5.556 |
| Cn1nccc1-c1cc(OC(CN)c2ccccc2)cnc1-c1ccco1.O=C(O)C(F)(F)F.O=C(O)C(F)(F)F (centres unmarked) [TCMDC-143221] | -243.084 | -97.9255 | 30.5438 | – | 1.9 | 21.0268 | -310.615 | -207.349 | 0.471 | 24.0 | 72 | 24 | – | 72 | 72 | 1.852 | -243.1 | -97.9 | 30.5 | -243.084 | MCC50 (figure 5): 50 µM |
| CS(=O)(=O)c1ccc(CC(=O)Nc2nc(-c3ccc(Cl)s3)cs2)cc1 [TCMDC-143224] | -50.7576 | -167.826 | 53.6478 | 16.7 | 1.9 | -3.952 | -61.4068 | -205.24 | -9.589 | 48.0 | 72 | 48 | 72.0 | 72 | 48 | 1.852 | -50.8 | -167.8 | 53.7 | -50.7576 | tlag_MCC50 (at MCC50): 48.0 h; MCC50 (figure 5, in µM): 16.6667 |
| CCN(C)Cc1ccc(N2CCC(NS(=O)(=O)c3ccc4c(c3)CCO4)CC2)nc1 [TCMDC-143244] | -27.3777 | 29.749 | 55.3707 | 5.6 | 5.6 | 16.0918 | – | – | – | 24.0 | 72 | 24 | 72.0 | 72 | 48 | 5.556 | -27.4 | 29.8 | 55.4 | -2.6188 | AM/CELL NORM (Time 24, figure 4 A): -52.1365; AM/CELL NORM (Time 48, figure 4 A): 10.0549; AM/CELL NORM (Time 72, figure 4 A): 24.5494; t50%_Cmax: 72.0 h; tlag_MCC50 (at MCC50): 24.0 h; MCC50 (figure 5, in µM): 27.7778 |
| COc1ccc(S(=O)(=O)NC(C)C)cc1Nc1ncc(-c2cccc(F)c2)cn1 [TCMDC-143248] | -143.559 | -20.0816 | 54.2238 | 50.0 | 0.6 | -6.932 | -311.598 | -64.9455 | 9.4251 | 24.0 | 72 | 24 | 72.0 | 72 | 48 | 0.6173 | -143.6 | -20.1 | 54.2 | -47.9652 | t50%_Cmax: 72.0 h; tlag_MCC50 (at MCC50): 24.0 h; MCC50 (figure 5): 50 µM |
| O=C(NCCc1ccccc1Cl)c1cccn1-c1cccnc1 [TCMDC-143253] | -106.211 | -219.247 | 24.5352 | – | 0.6 | -14.0913 | -106.211 | -401.6 | -120.948 | 48.0 | 72 | 48 | – | 72 | 72 | 0.6173 | -106.2 | -219.3 | 24.5 | -106.211 | MCC50 (figure 5): 50 µM |
| COc1ccc(S(=O)(=O)Nc2ccccc2OC)cc1NC(=O)CCCc1c[nH]c2ccccc12 [TCMDC-143256] | -69.6887 | 10.9628 | 75.3535 | 5.6 | 1.9 | 3.221 | -34.0663 | 12.7734 | 63.1728 | 24.0 | 72 | 24 | 72.0 | 72 | 24 | 1.852 | -69.7 | 11.0 | 75.4 | -34.0663 | t50%_Cmax: 72.0 h; tlag_MCC50 (at MCC50): 24.0 h; MCC50 (figure 5, in µM): 5.556 |
| COc1ccc2c(Cl)c(C(=O)N3CCC3)sc2c1Cl [TCMDC-143262] | -33.6637 | -143.465 | -114.282 | – | 16.7 | 16.6129 | -33.6637 | -143.465 | -114.282 | 48.0 | 72 | 48 | – | 72 | 72 | 16.6667 | -33.7 | -143.5 | -114.3 | -33.6637 | MCC50 (figure 5): 50 µM |
| CCN(CC)S(=O)(=O)c1ccc(C(=O)Nc2cc(C)nn2-c2nc(C)c(C)c(=O)[nH]2)cc1 [TCMDC-143273] | -21.3076 | 17.6407 | 21.9061 | 1.9 | 0.6 | -1.286 | -40.8598 | 1.208 | 53.2799 | 24.0 | 72 | 24 | 72.0 | 72 | 38 | 0.6173 | -21.3 | 17.6 | 21.9 | 4.663 | t50%_Cmax: 72.0 h; tlag_MCC50 (at MCC50): 4.0 h; MCC50 (figure 5, in µM): 25.9259 |
| COc1ccc(C(C)(C)C)cc1S(=O)(=O)n1ccnc1 [TCMDC-143275] | -36.0217 | -75.3113 | 19.8776 | – | 0.2 | 7.308 | -56.5644 | -75.3113 | -31.1405 | 48.0 | 72 | 48 | – | 72 | 72 | 0.2058 | -36.0 | -75.3 | 19.9 | -36.0217 | MCC50 (figure 5): 50 µM |
| CCCn1c(NC(=O)Cc2ccc(Cl)cc2)nc2ccccc21 [TCMDC-143279] | -55.8269 | -85.7556 | -269.589 | 5.6 | 9.3 | 0.2091 | -159.496 | -347.093 | -621.538 | 38.0 | 72 | 38 | 48.0 | 60 | 48 | 9.259 | -55.8 | -85.8 | -269.6 | 3.26 | tlag_MCC50 (at MCC50): 24.0 h; MCC50 (figure 5, in µM): 27.7778 |
| CCC(=O)Nc1ccc(C(=O)Nc2ccccc2-c2ccccc2)cc1 [TCMDC-143286] | 59.883 | 81.1358 | 89.3246 | 1.9 | 0.6 | 27.4861 | 59.883 | 81.1358 | 89.3246 | 4.0 | 24 | 4 | 48.0 | 48 | 4 | 0.6173 | 59.9 | 81.1 | 89.3 | 59.883 | t50%_Cmax: 24.0 h; tlag_MCC50 (at MCC50): 4.0 h; MCC50 (figure 5, in µM): 1.852 |
